Where two headings read alike, the source gives them in different places.
Assays:
MGMT [1] = conditions: some tumor cell lines; von Wronski et al., 1994; cited from earlier work
[2] = system: Methionine-dependent, mer^+ tumor cells; test: Cytotoxicity of BCNU (summary); type: cell-based; conditions: Homo sapiens
Procedure: (§1) The cytotoxicity of BCNU on cultured cells in MET^+ HCY^+ and MET^- HCY^+ was measured by a modification of the method of Branch et. al. (1993) as follows: methionine-dependent cells were seeded and cultured in MET^+ HCY^- in 35 mm petri dishes until they were nearly confluent. The cells were then transferred in MET^- HCY^+ and cultured for an additional 4 to 6 days at which time cell numbers were reduced due to cell death and inhibition of mitosis. Dead cells were removed and medium was replaced on a daily basis. Following this period in MET^- HCY^+ medium, remaining live cells were washed with PBS and then treated with various concentrations of BCNU in PBS for 1 hour at 37° C. while they were still attached. Subsequently, the BCNU was removed, replaced with MET^+ HCY^- medium and cultures were incubated for an additional 4 days at 37° C. in 6% CO2. At that time cells were trypsinized and counted using a Coulter-Counter (Coulter Electronics, Hialeah Fla.). The concentration of the drug that halves the growth rate of the tumor cells (IC50), was determined from plots of BCNU concentrations versus the percent change in cell numbers as compared to untreated controls within a four day interval from treatment (Jackson, 1992). The IC50 of BCNU on methionine-dependent cells cultured in MET^+ HCY^- or methionine independent cells cultured in either media was also determined by the same method.

[3] = system: MET-independent or mer^- tumor cell lines and normal cells; test: Cytotoxicity of BCNU (summary); type: cell-based; conditions: MET^- HCY^+ versus MET^+ HCY^-
Procedure: as §1

SW-40 = test: Cytotoxicity of BCNU; type: cell-based, human; conditions: for IC50: Homo sapiens, SW-40 (mer^-), 1 h BCNU, 4 days
Procedure: as §1

U-138 = test: Cytotoxicity of BCNU; type: cell-based; conditions: Homo sapiens, 1 h BCNU, 4 days
Procedure: as §1

D-341 = test: Cytotoxicity of BCNU; type: cell-based; conditions: Homo sapiens, 1 h BCNU, 4 days
Procedure: as §1

NIH-3T3 = test: Cytotoxicity of BCNU; type: cell-based; conditions: Mus musculus, NIH3T3, 1 h BCNU, 4 days
Procedure: as §1

Daoy [4] = test: Cytotoxicity of BCNU; type: cell-based; conditions: Homo sapiens
Procedure: as §1

H-1944 = test: Cytotoxicity of BCNU; type: cell-based; conditions: Homo sapiens, 1 h BCNU, 4 days
Procedure: as §1

U-87 = test: Cytotoxicity of BCNU; type: cell-based; conditions: Homo sapiens, U-87 MG, U-87 (mer^-), 1 h BCNU, 4 days
Procedure: as §1

H-1623 = test: Cytotoxicity of BCNU; type: cell-based; conditions: Homo sapiens, 1 h BCNU, 4 days
Procedure: as §1

MGMT positive tumors = conditions: prior depletion of MGMT; Dolan et al., 1993; Schold et al., 1996; cited from earlier work
MGMT [5] = conditions: Daoy; 48 hrs from repletion following 10 days in HCY
Procedure: Detaching cells ascertained to be dead by trypan blue exclusion were removed by changing the medium every 48 hours. Cells were then either trypsinized and reseeded in the same medium or washed with PBS and supplied with the methionine-HCY^+ medium. Due to extensive death in this medium, it was necessary to remove detaching dead cells on a daily basis. Cells from both media were harvested at time intervals indicated and used to measure cell cycle status and MGMT activity. Cells from either cultures (5×10^7) were also harvested, washed with PBS and immediately frozen as a source of protein, DNA and RNA. All cells collected were live (>95%) as determined by trypan blue exclusion.
The [^3 H]DNA substrate for measurements of MGMT activity was synthesized as follows: One mCi ethanolic solution of N-[^3 H]methyl-N-nitrosourea (MNU) having specific activity 18.8 Ci/mmol (Amersham) was concentrated to 0.2 ml with a N2 stream and mixed with 1 ml of DNA solution (5 mg) in 0.02 M 2-amino-2-methyl-1,3-propanediol at pH 10. […]
The [^3 H]DNA contained 29.8 μCi of radioactivity (alkylation efficiency 3%) which was distributed as 3-methyladenine 3.5%, 7-MeG 79.6%, 1-methyladenine 0.6%, O^6 -MeG 9.0% and other adducts 7.3%. The specific activities of 7-MeG and O^6 -MeG were calculated to be 15.8±0.8 and 16.5±0.5 Ci/mmol respectively. […]

Daoy [6] = conditions: 48 hrs from repletion following 10 days in HCY
[7] = Plasma methionine and thiols after diet, methionine precursor and methioninase; type: in vivo, nude mice; conditions: met^- hcy^- chl^- diet, 8 h after precursor 50 mg/kg ip, no methioninase
Procedure: The methionine peak is marked with an asterik.
FIG. 7A: homocysteine thiolactone; FIG. 7B: homocysteine thiolactone+methioninase; FIG. 7C: homocystine; and FIG. 7D: homocystin+methioninase. All animals were killed 6 hours after the injection of the methionine precursor.
^1 Levels of total thiols in circulation 8 hours after injection (ip)
of met precursor and 6 hours after treatment with methioninase. Mean of 3
determinations ± SD. MET precursor was 50 mg/kg; methioninase
(abbreviated METH.) was 1000k U/kg.

[8] = MET^+ HCY^- culture, read-out: IC50 (MET)
[9] = MET^- HCY^+ culture, read-out: IC50 (HCY)

## Nc1ncn([C@@H]2O[C@H](CO)[C@@H](O)[C@H]2O)c(=O)n1 [5-azacytidine]
MGMT [1]
  increase of the MGMT activity: substantial increase

## O=NN(CCCl)C(=O)NCCCl [BCNU, 1,3-bis (2-chloroethyl)-1-nitrosourea]
[2]; cultured in MET^+ HCY^-
  IC50: 45 to 90 µM
[2]; cultured in MET^- HCY^+
  IC50: 5 to 10 µM
[3]
  sensitivity to BCNU: unaffected
SW-40; [8]
  IC50: 10 µM
SW-40; [9]
  IC50: 15 µM
SW-40; SWB-40, mer^-, methionine-dependent
  resistance to BCNU upon methionine depletion: not affected
U-138; [8]
  IC50: 50 µM
U-138; [9]
  IC50: 10 µM
D-341; D341, MET^+ HCY^- culture, read-out: IC50 (MET)
  IC50: 65 µM
D-341; D341, MET^- HCY^+ culture, read-out: IC50 (HCY)
  IC50: 10 µM
NIH-3T3; NIH-3T3, control mer+, methionine independent, MET^+ HCY^- culture, read-out: IC50 (MET)
  IC50: 35 µM
NIH-3T3; NIH-3T3, MET^- HCY^+ culture, read-out: IC50 (HCY)
  IC50: 40 µM
Daoy [4]; MET^+ HCY^- culture, 1 h BCNU, counted after 4 days, read-out: IC50 (MET)
  IC50: 45 µM
Daoy [4]; cultured in MET^- HCY^+ 4 days before 1 h BCNU, read-out: IC50 (HCY)
  IC50: ~5 µM
H-1944; NCI-H1944, MET^+ HCY^- culture, read-out: IC50 (MET)
  IC50: 65 µM
H-1944; NCI-H1944, MET^- HCY^+ culture, read-out: IC50 (HCY)
  IC50: 10 µM
U-87; [8]
  IC50: 15 µM
U-87; [9]
  IC50: 15 µM
H-1623; NCI-H1623, MET^+ HCY^- culture, read-out: IC50 (MET)
  IC50: 90 µM
H-1623; NCI-H1623, MET^- HCY^+ culture, read-out: IC50 (HCY)
  IC50: 10 µM

## Nc1nc(OCc2ccccc2)c2[nH]cnc2n1 [O^6 -benzylguanine]
MGMT positive tumors
  increase in the efficacy of alkylating drugs such as BCNU: Significant increase

## CSCC[C@H](N)C(=O)O [methionine]
MGMT [5]
  recovery of MGMT activity: 65 % of the base line
Daoy [6]
  doubling time after repletion of methionine: 22 h

## NC1CCSC1=O (centres unmarked) [homocysteine thiolactone]
[7]
  CYS: 100 ± 13 µM
  GSH: 81 µM
  HCY: 20 ± 3 µM
  MET: 12 ± 3 µM

## N[C@@H](CCSSCC[C@H](N)C(=O)O)C(=O)O [homocystine]
[7]
  CYS: 100 ± 4 µM
  GSH: 56 ± 8 µM
  HCY: 17 ± 2 µM
  MET: 6 ± 2 µM

Source: patent US6017962A, “Method of depletion of methionine in plasma and solid tumors and uses thereof” (Board of Regents, The University of Texas System, priority 1997, dated 2000)
